This is an account of results in patent US20010044459A1, “Hydroxamic acid derivatives” (priority 1997, published 2001).

Where a SMILES comes first, the peptide text is derived from it.

Experiment [1] deals with NAALADase (Rattus norvegicus, UniProt P70627). The experiment in a line: In vitro assay of NAALADase activity ([3H]Glu liberated from [3H]NAAG, synaptosomal protein). In kind it is biochemical. As to conditions: compared with 2-(phosphonomethyl)pentanedioic acid. The procedure: Substrate and product were resolved by anion-exchange liquid chromatography. […] Quisqualate (100 μM) was included in parallel assay tubes to confirm the specificity of the measurements.
Chain of NAALADase (Rattus norvegicus, UniProt P70627) (P70627 whole entry): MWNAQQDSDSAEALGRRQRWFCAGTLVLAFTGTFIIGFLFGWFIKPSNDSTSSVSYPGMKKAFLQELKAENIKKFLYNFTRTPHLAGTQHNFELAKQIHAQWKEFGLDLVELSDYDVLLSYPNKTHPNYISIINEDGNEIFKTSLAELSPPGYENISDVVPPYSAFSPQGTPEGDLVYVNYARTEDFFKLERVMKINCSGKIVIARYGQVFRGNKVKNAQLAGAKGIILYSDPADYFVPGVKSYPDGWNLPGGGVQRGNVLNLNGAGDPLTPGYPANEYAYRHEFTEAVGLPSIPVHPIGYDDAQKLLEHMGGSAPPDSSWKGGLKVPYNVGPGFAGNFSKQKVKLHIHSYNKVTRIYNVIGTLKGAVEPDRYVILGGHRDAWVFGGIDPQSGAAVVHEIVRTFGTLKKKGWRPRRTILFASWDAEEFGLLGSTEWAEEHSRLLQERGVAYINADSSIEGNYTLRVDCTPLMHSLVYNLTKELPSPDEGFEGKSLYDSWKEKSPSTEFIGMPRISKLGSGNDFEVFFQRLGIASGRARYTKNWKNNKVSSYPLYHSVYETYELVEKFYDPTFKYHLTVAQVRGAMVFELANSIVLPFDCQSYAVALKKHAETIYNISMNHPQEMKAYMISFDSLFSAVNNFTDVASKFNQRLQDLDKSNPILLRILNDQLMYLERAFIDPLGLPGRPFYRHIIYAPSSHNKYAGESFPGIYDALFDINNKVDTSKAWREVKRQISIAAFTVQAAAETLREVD

Another experiment has as its system cortical cell cultures. The experiment in a line: In vitro toxicity of NAAG (LDH release). In kind it is cell-based, rats. As to conditions: NAAG 3 μM for 20 minutes. The procedure:
Experiments are performed after 21 days in cultures.
At the end of exposure, the cells are washed once with HEPES buffered saline solution and then replaced with serum free modified Earle's basal medium. The cultures are then returned to the CO2 incubator for 24 hour recovery.
This control measurement is subtracted from each experimental point.
For orientation: LDH in the medium is a marker of cell lysis.

The target in experiment [2] is NAALADase (Homo sapiens, UniProt Q04609). As to conditions: read-out: Km of NAALADase for NAAG; NAAG as substrate; cited from earlier work.
Chain of NAALADase (Homo sapiens, UniProt Q04609) (Q04609 whole entry): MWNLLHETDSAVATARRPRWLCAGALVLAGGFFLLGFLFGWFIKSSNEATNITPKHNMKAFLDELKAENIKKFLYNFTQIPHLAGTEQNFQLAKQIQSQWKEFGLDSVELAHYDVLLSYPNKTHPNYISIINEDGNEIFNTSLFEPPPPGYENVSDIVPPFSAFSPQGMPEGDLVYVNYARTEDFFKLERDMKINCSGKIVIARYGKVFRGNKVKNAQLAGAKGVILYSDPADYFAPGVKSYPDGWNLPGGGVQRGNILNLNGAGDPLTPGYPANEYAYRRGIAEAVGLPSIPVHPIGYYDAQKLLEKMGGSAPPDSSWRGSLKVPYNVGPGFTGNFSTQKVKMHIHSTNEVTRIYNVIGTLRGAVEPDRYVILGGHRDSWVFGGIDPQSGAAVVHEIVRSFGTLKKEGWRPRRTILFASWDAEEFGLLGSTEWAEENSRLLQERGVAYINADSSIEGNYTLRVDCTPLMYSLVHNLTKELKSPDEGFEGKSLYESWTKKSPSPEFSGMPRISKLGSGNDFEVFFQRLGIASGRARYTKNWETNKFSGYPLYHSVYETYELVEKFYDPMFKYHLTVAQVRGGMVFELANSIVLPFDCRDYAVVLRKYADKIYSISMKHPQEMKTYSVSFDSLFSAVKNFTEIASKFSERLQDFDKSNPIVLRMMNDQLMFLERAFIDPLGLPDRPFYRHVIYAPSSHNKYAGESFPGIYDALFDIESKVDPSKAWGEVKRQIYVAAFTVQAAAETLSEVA

As for `O=C(O)CCC(CP(=O)(O)CCC(=O)O)C(=O)O` (stereo not shown) [2-[[2-carboxyethyl)hydroxyphosphinol]methyl]pentanedioic acid], the “NAALADase inhibiting activity (in words, by comparison)” value at NAALADase [1] is reported as “lower NAALADase inhibiting activity”.

One may read the Km as the substrate concentration at which the rate is half of its maximum. On to `CC(=O)N[C@@H](CC(=O)O)C(=O)N[C@@H](CCC(=O)O)C(=O)O` [NAAG, N-acetyl-aspartyl-glutamate] (Ac-Asp-Glu-OH), for which, in the experiment with cortical cell cultures, the “% Toxicity” value is 3.51%. For the same compound, at NAALADase [2], the Km was 540 nM.

For `O=C(O)CC(CP(=O)(O)O)C(=O)O` (stereo not shown) [2-(phosphonomethyl)succinic acid], the “NAALADase inhibiting activity (in words, by comparison)” value on NAALADase [1] was “much lower NAALADase inhibiting activity”.
